The subject of one data set is mouse hepatocytes. Kind of data set: In vitro metabolism of Compound 2 in mouse cryopreserved hepatocytes. It is filed as in vitro ADME. Further details: key to Relative abundance of metabolite of Compound 2, Mouse: ND Not detected.; trace: Trace: observed by HPLC/MS measurements only.; + Minor as assessed by HPLC/UV measurements; ++ moderate as assessed by HPLC/UV measurements; +++ major as assessed by HPLC/UV measurements.; * m/z 593 and m/z 505 co-eluted in rabbit hepatocytes.; ** m/z 591 c and m/z 593 were merged in human hepatocytes and Hepatopack.; *** m/z 607 and m/z 751 b were merged in rabbit hepatocytes. The following applies: for metabolite of Compound 2 observed in mouse hepatocyte incubations: 10 μM Compound 2, 7.5×10^5 cells/mL, 1 and 4 hrs composite. The method, then: (§1) Male CD-1 mouse hepatocytes (lot YHL), male Wistar-Han rat hepatocytes (Celsius; product number: M000065; lot: SLA), female New Zealand rabbit hepatocytes (lot 1510147), male cryopreserved cynomolgus monkey hepatocytes (Celsius; product number: M00305; lot: DNB) and mixed-gender cryopreserved human hepatocytes (Bioreclamation; product number: S01988; lot: DCM) were obtained for the hepatocyte in-vitro assessments.
(§2) At time 0 hrs 550 μL aliquots were removed from incubations and quenched with 5 volumes of ACN containing 0.1% formic acid. At 1 and 4 hrs, 275 μL aliquots were removed and quenched as above; these were combined in the same tube to prepare a composite sample. For all hepatocyte experiments, samples were processed by centrifugation at 1900×g for 5 minutes, and then the supernatant was transferred to clean glass tubes and evaporated to dryness under a stream of N2 using a Turbovap at 37° C. Sample residues were reconstituted in mobile phase prior to analysis by HPLC/UV/MS^n.
(§3) Samples were analyzed by HPLC/UV/MS^n using a Thermo Orbitrap Elite mass spectrometer in conjunction with a Thermo Open Accela UHPLC system. A 3.0×150 mm, 2.5 μm Acquity CSH C18 HPLC column (Waters) was heated to 45° C. for separation of analytes. The mobile phase was a gradient of A): water containing 0.1% formic acid, and B): acetonitrile. The flow rate was 450 μL/min, and the following gradient program was utilized: […]
(§4) UV absorbance was monitored with a photo-diode array detector from 220-450 nm. The mass spectrometer was operated in positive-ion mode with a HESI ion source at a potential of 3.0 kV, and capillary and source heater temperatures of 380 and 300° C., respectively. Sheath, auxiliary, and sweep gas flows were set to 45, 10, and 2 units, respectively. Full scan mass spectra were acquired over the range 120-1200 m/z at a resolving power of 30,000 (specified at m/z 400). Data-dependent MS^n spectra were acquired in an automated fashion at 15,000 resolving power using CID and HCD fragmentation with normalized collision energy settings of 28 and 65 V, respectively.
(§5) Metabolites were characterized by comparisons of mass spectral fragmentation patterns with that of a Compound 2 standard. All HPLC/UV/MS^n data were processed using Xcalibur v. 2.2, and integrated UV peak areas were subjected to weighted UV binning procedures utilizing an Excel template.

The nature of data set [1]: Metabolites of Compound 2 in rat bile following a 1.0 mg/kg IV bolus dose. The following applies: 1.0 mg/kg IV bolus dose of Compound 2, bile duct cannulated rats, pooled 0-24 hrs. It is filed as in vivo. As for the experimental part:
Plasma and bile samples were obtained from a bile duct cannulated rat experiment (Study PK-0111) in which a 1.0 mg/kg IV bolus dose was administered to fed male rats (N=3). No control plasma was available from this experiment.
Bile samples (0-3, 3-7, and 7-24 hrs) from individual animals were pooled in proportion to the amount collect in each interval. Then 0.5 mL of each individual pool was combined to prepare a composite sample for analysis.
Pooled plasma and bile samples were extracted with ACN containing 0.1% formic acid, and after centrifugation at 1900×g, the supernatant was transferred to clean tubes and evaporated under N2 in a Turbovap set at 37° C. Residues were reconstituted in mobile phase (5:95 v:v ACN:0.1% aqueous formic acid) prior to analysis by HPLC/UV/MS^n.
as §3, §4, §5

For another data set, the system named is human hepatocytes. Kind of data set: In vitro metabolism of Compound 2 in human cryopreserved hepatocytes. The data set is classed as in vitro ADME. The arrangement: key to Relative abundance of metabolite of Compound 2, Human: ND Not detected.; trace: Trace: observed by HPLC/MS measurements only.; + Minor as assessed by HPLC/UV measurements; ++ moderate as assessed by HPLC/UV measurements; +++ major as assessed by HPLC/UV measurements.; * m/z 593 and m/z 505 co-eluted in rabbit hepatocytes.; ** m/z 591 c and m/z 593 were merged in human hepatocytes and Hepatopack.; *** m/z 607 and m/z 751 b were merged in rabbit hepatocytes. To be noted: for metabolite of Compound 2 observed in human hepatocyte incubations: 10 μM Compound 2, 7.5×10^5 cells/mL, 1 and 4 hrs composite. The method, then: as §1, §2, §3, §4, §5

Data set [2] relates to human co-cultured hepatocytes (Hepatopack). Briefly: In vitro metabolism of Compound 2 in human micropatterned co-cultured hepatocytes (Hepatopack). It is filed as in vitro ADME. The arrangement: key to Relative abundance of metabolite of Compound 2, Hepatopack: ND Not detected.; trace: Trace: observed by HPLC/MS measurements only.; + Minor as assessed by HPLC/UV measurements; ++ moderate as assessed by HPLC/UV measurements; +++ major as assessed by HPLC/UV measurements.; * m/z 593 and m/z 505 co-eluted in rabbit hepatocytes.; ** m/z 591 c and m/z 593 were merged in human hepatocytes and Hepatopack.; *** m/z 607 and m/z 751 b were merged in rabbit hepatocytes.
Description: Micro-patterned co-cultured (MPCC) hepatocyte 24-well plates containing human donors (16 wells each) were provided by Ascendance Biotechnology (formerly Hepregen Corp. (Medford, MA). [see Wang W W W, Khetani S R, Krzyzewski S, et al. Assessment of a Micropatterned Hepatocyte Coculture System to Generate Major Human Excretory and Circulating Drug Metabolites. Drug Metab Dispos 2010; 38(10):1900-5.] The MPCCs were created at Ascendance Biotechnology and maintained in serum containing medium for 5-6 days to allow for stabilization of the co-cultures prior to shipment. A mixed-gender cryopreserved pool of 10 human donors (X008001-P; lot YFA) was used to seed the plates and was purchased from BioreclamationIVT (Westbury, NY). MPCC hepatocytes are plated with fibroblasts in a 1:3 ratio with ˜25,000 hepatocytes/well in a 24-well plate. 24-Well MPCC plates were shipped to Pfizer, fresh medium (400 μL/well) was applied and cultures were kept at 37° C. with […] and 95% relative humidity for two days. Micropatterned co-cultures containing pooled hepatocytes were allowed 7 days to fully stabilize with respect to liver-specific functions. […] At respective time points (0, 2, and 7 days), the culture medium was removed and mixed with 4 volumes of ACN, then stored frozen at −40° C. until samples could be analyzed. Samples were subsequently processed by the addition of 2.5 mL of 1:1 ACN:MeOH containing 0.1% formic acid. After vortexing, the samples were centrifuged at 1900×g for 5 min, then the supernatant was transferred to 15 mL conical tubes and evaporated under N2 using a Turbovap set at 37° C. The residues were reconstituted in mobile phase (5:95 v:v ACN:0.1% aqueous formic acid) prior to analysis by HPLC/UV/MS^n.
as §3
UV absorbance was monitored with a photo-diode array detector from 220-450 nm. The mass spectrometer was operated in positive-ion mode with a HESI ion source at a potential of 3.0 kV, and capillary and source heater temperatures of 380 and 300° C., respectively. Sheath, auxiliary, and sweep gas flows were set to 45, 10, and 2 units, respectively. Full scan mass spectra were acquired over the range 120-1200 m/z at a resolving power of 30,000 (specified at m/z 400). […]

The structures appear in SMILES notation.

On to `C[C@]1(c2ccc(Cl)cn2)Oc2cccc(C3CCNCC3)c2O1` [Metabolite 331], for which, in the data set with mouse hepatocytes, the “metabolite of Compound 2 observed in mouse hepatocyte incubations” value is “observed in all hepatocyte incubations”. In addition, the “Relative abundance of metabolite of Compound 2, Mouse” value in the data set with mouse hepatocytes (mouse cryopreserved hepatocytes, HPLC/UV/MS) is “+”. The entries for the “detected in rat bile” value in data set [1] and in data set [1] (listed as m/z 331) were “observed” and “detected”, respectively. Moreover, the “metabolite of Compound 2 observed in human hepatocyte incubations” value with human hepatocytes was “observed in all hepatocyte incubations”. The “Relative abundance of metabolite of Compound 2, Human” value in the data set on human hepatocytes (human cryopreserved hepatocytes, HPLC/UV/MS) was “+”. In addition, the “Relative abundance of metabolite of Compound 2, Hepatopack” value in data set [2] (human co-cultured hepatocytes (Hepatopack), HPLC/UV/MS) is “trace”.

Consider `C[C@]1(c2ccc(Cl)cn2)Oc2cccc(C3CCN(Cc4nc5ccc(C(=O)O[C@@H]6O[C@H](C(=O)O)[C@@H](O)[C@H](O)[C@H]6O)cc5n4C[C@@H]4CCO4)CC3)c2O1` [Metabolite 751b], for which, in the data set with mouse hepatocytes, the “metabolite of Compound 2 observed in mouse hepatocyte incubations” value is “observed in all hepatocyte incubations”. Also, the “detected in rat bile” value in data set [1] was “observed”; in data set [1] (listed as m/z 751b) it was “detected”. In addition, the “metabolite of Compound 2 observed in human hepatocyte incubations” value in the data set on human hepatocytes was “observed in all hepatocyte incubations”; with human hepatocytes (listed as m/z 751b) it was “most abundant metabolites”. Further, the “abundance of metabolite of Compound 2 in human Hepatopack system” value in data set [2] (Compound 2 tris salt 20 μM, up to 7 days) is “most abundant metabolites”.

For the origin of these results see patent US12065434B2, “Metabolites of GLP1R agonists” (Pfizer Inc., priority 2020, dated 2024).
